Assay results reported in EPA's ToxValDB 9.5 (doi:10.2903/j.efsa.2008.122r).
Values after ≈ are worked out from the molar mass of the structure shown.

Legend:
Cyprinus carpio = settings: acute; duration: 96 hours; mortality
Apis mellifera = settings: acute; duration: 48 hours; dermal; mortality
Rattus norvegicus = settings: for NOAEL: body weight
Oncorhynchus mykiss = settings: chronic/long-term; duration: 35 days; growth
Aphidius rhopalosiphi = settings: not reported
Daphnia magna = settings: chronic/long-term; duration: 21 days

## O=C(Nc1ccc(F)cc1F)c1cccnc1Oc1cccc(C(F)(F)F)c1 [Diflufenican]
Cyprinus carpio
  LC50: 0.0985 µg/mL (≈ 0.25 µM)
Apis mellifera
  LD50: > 100 µg/piece
Rattus norvegicus; acute, oral, mortality
  LD50: > 5000 mg/kg
Rattus norvegicus; chronic, duration: 2 years
  NOAEL: 23.3 mg/kg-day
Rattus norvegicus; reproduction developmental, M
  NOAEL: 35.5 mg/kg-day
Rattus norvegicus; subchronic, duration: 13 weeks, oral
  NOAEL: 19.5 mg/kg-day
Bird; acute, oral, unspecified, mortality
  LD50: > 2150 mg/kg
Bird; reproductive
  NOEC: 91.8 mg/kg
Oncorhynchus mykiss
  NOEC: 0.015 mg/L
Tagia sp.; acute, duration: 14 days, mortality
  LC50: > 1000 mg/kg
Tagia sp.; chronic/long-term, reproduction
  NOEC: 1000 mg/kg
Aphidius rhopalosiphi; mortality
  LEL: 188 g/ha
Aphidius rhopalosiphi; reproduction
  LEL: 188 g/ha
Daphnia magna
  NOEC: 0.052 mg/L
